Assay results: patent publication US20040014217A1, “Methods of transfection” (priority 2000, published 2004)

Columns and labels:
1HAEo-cells [1] = assay: pEGFP transfection efficiency by flow cytometry, 1HAEo- cells, Example 15; type: cell-based, human; settings: EGTA 2 mM versus no EGTA
Experimental: Human airway epithelial cell lines, a normal cell line 1HAEo- and a CF cell line 2CFSMEo-, were used in this study. […] The apical medium was then removed and growth medium was added basolateraly to leave the cells growing at an air-liquid interface. Confluent cells were grown for further 10-14 days and were monitored with an ohmmeter (EVOM; World Precision Instruments, Stevenage, UK) until the transepithelial resistance was greater than 300 Ω·cm before transfection. […] Sub-confluent, proliferating cells were prepared by growing the cells for less then 3 days in growth medium prior to transfection.
Briefly, stock solutions of the three components of the LID vector complex were prepared first. Plasmid DNA (component D) was diluted in cell culture medium OptiMEM (Life Technologies, Paisley, UK) at a concentration of 0.01 μg/μl. […] The peptide component I was dissolved in Opti-MEM at 0.1 mg/ml. The lipid component L was Lipofectin, a commercially available equimolar mixture of the cationic lipid N-[1-(2,3-dioleyloxy)propyl]-n,n,n-trimethylammonium chloride (DOTMA) and the neutral lipid dioleoyl phosphotidylethanolamine (DOPE), (Life Technologies, Paisley, UK) and was used from purchase at 1 mg/ml. […]

1HAEo-cells [2] = assay: BrdU incorporation by flow cytometry, 1HAEo- cells; type: cell-based, human; settings: EGTA 2 mM, aphidicolin 10 μg/ml where present
Experimental: A BrdU Labelling and Detection Kit (Roche, Basel, Switzerland) was used, which contains the BrdU labelling reagent and the monoclonal mouse anti-BrdU. […] Cells were washed with PBS and incubated with a second layer antibody, Texas Red labelled horse anti-mouse IgG (Vector Laboratories, Peterborough, UK), for 30 minutes at 37° C. and then analysed by flow cytometry at the wavelength of 575±20 nm as detailed above. In some experiments, aphidicolin, a cell-proliferation inhibitor blocking the cell cycle in S-phase, was added to the cells to observe the effects on transfection efficiency.

mouse lung = assay: Transfection of mouse lungs in vivo (luciferase), intra-tracheal instillation
Experimental: Lipid (lipofectin) (1 mg/ml) and peptide 6 ([sequence]) (1 mg/ml) were mixed in one tube and pCILuc Plasmid DNA (1 mg/ml) and EGTA in phosphate buffer saline (PBS) were mixed together in another tube then the contents of the two tubes were mixed so that the final ratios were 0.75 μg lipid to 1 μg DNA and a final concentration of 100 mM EGTA (or no EGTA for the control). The protocol was repeated to give vector complexes having a final EGTA concentration of 400 mM.
Each mouse received 8 μg of plasmid DNA in a volume of 50 μl.
Cell lysis buffer (Promega, Southampton, England) was added to each lung (4 μl/mg). The tissue was then homogenised two times, on ice, for 30 seconds each time (Polytron PT10-35, Philip Harris, Nottingham, England). Lung homogenates were is centrifuged at 10,000×g at 4 C for 10 minutes, then 20 μl of the supernatant were added to 100 μl of luciferase assay buffer (Promega) and luminescence measured in a luminometer (TD-20/20; Steptech Instruments, Stevenage, England). All results were repeated in triplicate and the mean calculated.
The total protein concentration in the lysate was measured using a protein assay kit (Bio-Rad, Hemel Hempstead, Herts, England) and using bovine serum albumin as a standard. Luciferase activity was expressed in relative light units (RLU) for each sample of lung lysate minus the background and normalised per mg of protein.

confluent 1HAEo-cells = assay: Binding of FITC-labelled LID complexes to confluent cells; type: cell-based, human; settings: 2 mM EGTA, 4° C.
Experimental: The effects of EGTA on cell binding were determined by transfection with LID complexes prepared with fluorescein (FITC) labelled peptide. Peptide-12 was labelled with FITC from a labelling kit (Calbiochem, San Diego, USA) and purified by dialyzing in PBS overnight, according to the manufacturer's instruction. The ability of FITC-conjugated peptide-12 to form complexes with plasmid DNA was determined by retardation test, in which the electrophoresis migration of DNA is retarded by forming complexes with the cationic peptide as described previously (Hart et al., 1995). […] The cells were then transfected with apically added LID-FITC for 60 minutes at 4° C., at which the complexes would only bind to cell surface and no internalisation would occur, see(Chu et al (1999), Cornelissen et al (1997), Im et al (1986). The surface binding of the LID complexes was further differentiated from the internalised LID by incubating the cells with 1 μg/ml crystal violet (Sigma, Poole, UK) for 10 minutes at 4° C., to quench the fluorescence of surface-bound LID complexes, see (Ma et al (1997), Van Amers & Van Strijp (1994). The mean numbers of fluorescent particles were then counted in 10 random microscope fields and comparison was made between the data obtained from EGTA-treated or untreated cells.

[3] = system: Human airway epithelial (HAE) cells; assay: GFP transfection of HAE cells with or without EGTA (FACS), Example 13; type: cell-based; settings: EGTA 1 mM
Experimental: Human airway epithelial (HAE) cells, type HEAO— were seeded at 80% into 24 well plates. The cells were grown in Modified Eagle Medium (MEM) obtained from Life Technologies (Paisley, Scotland) supplemented with 10% foetal calf serum and 2 mM L-glutamine to form cultures of confluent cells. Subconfluent cultures of the same cells were also prepared.
The reporter genes used were a green fluorescent protein (GFP) reporter gene and a luciferase reporter gene. The GFP reporter gene was used in the form of plasmid pEGFP-N1, obtained from Clontech. The luciferase reporter gene was used in the form of construct pCILuc consisting of the firefly luciferase gene (Luc) inserted into the expresssion vector pCI (Promega, Southampton, England)
For these in vitro experiments peptide 12 [K]16XSXGACRRETAWACG (X: ε amino hexanoic acid), SEQ.ID.NO.: 26, was used. […]
Transfection levels using the luciferase reporter gene was measured as described in the Material and methods section. In the case of the GFP reporter gene, after harvesting the cells were analysed by fluorescence activated cell sorting (FACS) for quantification of the number of fluorescent cells.

## O=C(O)CN(CCOCCOCCN(CC(=O)O)CC(=O)O)CC(=O)O [EGTA, ethylene glycol-bis(β-aminoethyl ether)-N,N,N′,N′-tetraacetic acid]
1HAEo-cells [1]
  increase in transfection efficiency of confluent cells: 4 fold
1HAEo-cells [2]
  BrdU-positive cells, sub-confluent 1HAEo- cells: about 24%
Mouse lung; 100 mM EGTA, 8 μg plasmid DNA in 50 μl, intra-tracheal
  enhancement of transfection of mouse lung (luciferase, RLU per mg lung protein): about four-fold
Mouse lung; 400 mM EGTA in vivo
  lethality: lethal in many cases
Confluent 1HAEo-cells
  binding of LID particles to confluent cells: greatly increased
[3]
  effect on efficiency of transfection of sub-confluent cells: no effect
  increase of transfection levels of confluent cells: four-fold
